Test results from patent US8877266B2, “Supercritical CO2 liquorice extract anti-microbial and anti-inflammatory isolates and products made there from” (Tom's of Maine, Inc., priority 2007, dated 2014).
≈ marks a conversion by molar mass, not a printed value.

Tests used:
[1] = test system: Prevotella intermedia ATCC 25611; assay: Broth microdilution minimum inhibitory concentration, Prevotella intermedia; assay type: cell-based; details: for MIC: Prevotella intermedia, ATCC25611, read-out: MIC against Prevotella intermedia
Description: (§1) For anaerobes, 190 μL of sterile, pre-reduced Wilkins Chalgren (WC) anaerobe broth with 0.075% cysteine were added to the first well of the test series in a 96 well plate, followed by 100 μL in each of four additional test wells. Ten μL of filter-sterilized stock solution of licorice CO2 extract, prepared at 40 mg/mL in ethanol, was added to the first well of the series. Contents of the first well were mixed thoroughly and serially diluted (1:1) with the remaining four wells in the series; 100 μL were discarded from the final well in the series. Suspensions of Porphyromanas gingivalis ATCC 33277 or Prevotella. intermedia ATCC 25611, diluted to approximately 1×10^6 cfu (colony forming units) per mL, were added to the test wells in 100 μL quantities. Appropriate growth promotion and sterility controls were included. Plates were incubated at 37° C. anaerobically, until turbidity in the growth control well was observed. The MIC (minimum inhibitory concentration) was recorded as the lowest concentration inhibiting growth of the test organism as viewed with the unaided eye. Streptococcus mutans ATCC 25175 was tested in similar fashion, with Tryptic Soy Broth (TSB) as the test medium and incubation of plates at 37° C. with 5% CO2. Staphylococcus aureus ATCC 6538 was tested using Tryptic Soy Broth (TSB) as the test medium and incubation of plates at 37° C. Aspergillus niger ATCC 16404 was tested, with Tryptic Soy Broth (TSB) as the test medium and incubated at room temperature (25° C.).
(§2) Broth microdilution minimum inhibitory concentration was performed as follows. Ten μL of filter-sterilized stock solution of pure compound, licoricidin or licorisoflavan A, prepared at 1 mg/mL in ethanol, was added to the first well of the series. Contents of the first well were mixed thoroughly and serially diluted (1:1) with the remaining seven wells in the series; 100 μL were discarded from the final well in the series. Suspensions of Porphyromanas gingivalis ATCC 33277 or Prevotella. intermedia ATCC 25611, diluted to approximately 1×10^6 cfu (colony forming units) per mL, were added to the test wells in 100 μL quantities. Appropriate growth promotion and sterility controls were included. Plates were incubated at 37° C. anaerobically, until turbidity in the growth control well was observed. The MIC (minimum inhibitory concentration) was recorded as the lowest concentration inhibiting growth of the test organism as viewed with the unaided eye. Streptococcus mutans ATCC 25175 was tested in similar fashion, with Tryptic Soy Broth (TSB) as the test medium and incubation of plates at 37° C. with 5% CO2.

[2] = test system: Porphyromanas gingivalis ATCC 33277; assay: Broth microdilution minimum inhibitory concentration, Porphyromonas gingivalis; assay type: cell-based; details: for MIC: Porphyromonas gingivalis, ATCC33277, read-out: MIC against Porphyromonas gingivalis
Description: as §1, §2

[3] = test system: Streptococcus mutans ATCC 25175; assay: Broth microdilution minimum inhibitory concentration, Streptococcus mutans; assay type: cell-based; details: for MIC: Streptococcus mutans, ATCC25175, read-out: MIC against Streptococcus mutans
Description: as §1, §2

[4] = Anti-inflammatory activity of the isolated components
[5] = broth microdilution, anaerobic 37° C., mode of triplicate
[6] = broth microdilution, TSB, 37° C. with 5% CO2, mode of triplicate

With licorisoflavan A the “MIC against Prevotella intermedia” value [1, 5] was 1.56 µg/mL, the “MIC against Porphyromonas gingivalis” value [2, 5] was 0.78 µg/mL and the antimicrobial activity (MIC) on Streptococcus mutans [3] was 3.12 µg/mL. The “MIC against Streptococcus mutans” value [3, 6] was 3.125 µg/mL and the “activity as anti-inflammatory agents” value [4] was “excellent activity”.

In the case of [H]/N=C(\N/C(=N/[H])NCCCCCCNC(=N)NC(=N)Nc1ccc(Cl)cc1)Nc1ccc(Cl)cc1 [Chlorhexidine, reference compound], the MIC [1, 5] was 3.12 µg/mL (≈ 6.18 µM), the “MIC against Prevotella intermedia (Chlorhexidine, Table 1A)” value ([1]; column head prints no unit) was 3.125 and the MIC [2, 5] was 6.25 µg/mL (≈ 12.4 µM). For the same compound, the “MIC against Porphyromonas gingivalis (Chlorhexidine, Table 1A)” value ([2]; column head prints no unit) was 6.25, the MIC [3, 6] was 1.56 µg/mL (≈ 3.09 µM) and the “MIC against Streptococcus mutans (Chlorhexidine, Table 1A)” value ([3]; column head prints no unit) was 1.56.

Work on COc1c(CC=C(C)C)c(O)cc2c1C[C@H](c1ccc(O)c(CC=C(C)C)c1O)CO2 [Licoricidin, licoricidin] yielded an MIC [1, 5] of 0.78 µg/mL (≈ 1.84 µM), an antimicrobial activity (MIC) against Porphyromonas gingivalis [2] of 0.39 µg/mL and an MIC [2, 5] of 0.39 µg/mL (≈ 0.919 µM). The antimicrobial activity (MIC) on Streptococcus mutans [3] was 3.12 µg/mL, the MIC [3, 6] was 3.12 µg/mL (≈ 7.36 µM) and the “activity as anti-inflammatory agents” value [4] was “excellent activity”.
